# Experimental data taken from patent publication US7625948B2, “Ester compound and medicinal use thereof” (Japan Tobacco Inc., priority 2002, dated 2009).
# System: HepG2 cells
# Assay: Test Example 2: inhibition of apolipoprotein B secretion from HepG2 cells, ELISA (also used for metabolites in Test Example 8)
# Type: cell-based
# Details: Homo sapiens, 24 hours, apo B in supernatant by ELISA, read-out: Test Example 2 Inhibition of apo B secretion IC50
# Protocol: Inhibition of Apolipoprotein B Secretion from HepG2 Cells
# HepG2 cells were suspended in Dulbecco's Modified Eagle's Medium (DMEM) (containing 10% fetal bovine serum, 100 units/mL penicillin and 100 μg/mL streptomycin), and placed on a 96-well plate (4×10^4 cells/well), then incubated for 24 hours. After removal of the medium, DMEM was replaced by a medium containing a sample dissolved in DMSO or a medium containing DMSO (concentration of DMSO: 0.5%) and incubation was further performed for 24 hours, after which the supernatant was recovered, and concentration of apo B in the supernatant was assayed by Enzyme-Linked Immunosorbent Assay (ELISA)
# ELISA was carried out as follows. Anti-human apo B monoclonal antibody (0.5 μg/well) diluted with a solution of sodium carbonate in sodium bicarbonate buffer (50 mL, pH 9.6) was placed in a 96-well plate for ELISA, and allowed to stand at room temperature for 15 hours. After washing the plate, a blocking solution (250 μL/well) was placed in the well, and allowed to stand at room temperature for 1.5 hours. After washing the plate, a standard and a sample (100 μL/well) were placed in the well and allowed to stand at room temperature for one hour. The standard was prepared by adjusting the concentration of the purified human apo B with the DMEM to 0 to 1000 ng/mL. After washing the plate, an anti-human apo B polyclonal antibody labeled with a horse radish peroxidase which was diluted in 1:1000 with DEME (100 μL/well), and allowed to stand at room temperature for one hour. After washing the plate, 2,2-azinobis(3-ethylbenzothiazoline-6-sulfonic acid) solution (100 μL/well) was placed in the well, and allowed to stand at room temperature for one hour. The reaction was stopped by addition of 2% oxalic acid (100 μL/well), and absorbency at 405 nm was measured. Concentration of apo B in the sample was calculated on the basis of a standard curve of the standard. Inhibition rate (%) was calculated from the assayed values in accordance with the following equation.
# Inhibition rate (%)=100×(1 minus (concentration of apo B in sample group/concentration of apo B in DMSO group).
# Based on the above equation, 50% inhibition concentration (IC50) was determined.
# Inhibitory Activity on MTP and apo B Secretion Inhibition by Metabolites
# In a similar manner to Test Examples 1 and 2, the activity of metabolites was assayed.
row,Structure (SMILES),IC50 [nM]
1,C=C(C)c1cc(C(F)(F)F)ccc1C(=O)Nc1ccc(CC(=O)OCC(C(=O)OCC)(C(=O)OCC)c2ccccc2)cc1C(=O)N(C)C [Example 2-93],45.8
2,CCOC(=O)C(COC(=O)Cc1ccc(NC(=O)c2ccccc2Nc2cccc(C(F)(F)F)c2)c(C(=O)N(C)C)c1)(C(=O)OCC)c1ccccc1 [Example 2-95],18
3,CCOC(=O)C(COC(=O)Cc1ccc(OC(=O)c2ccccc2-c2ccc(C(F)(F)F)cc2)c(C(=O)N(C)C)c1)(C(=O)OCC)c1ccccc1 [Example 2-96],81
4,CCOC(=O)C(COC(=O)Cc1ccc(NC(=O)c2ccccc2Oc2cccc(C(F)(F)F)c2)c(C(=O)N(C)C)c1)(C(=O)OCC)c1ccccc1 [Example 2-97],22
5,CCOC(=O)C(COC(=O)Cc1ccc(NC(=O)c2ccccc2Oc2ccc(C(F)(F)F)cc2)c(C(=O)N(C)C)c1)(C(=O)OCC)c1ccccc1 [Example 2-99],19
6,CN(C)C(=O)c1cc(CC(=O)OCC2(c3ccccc3)CCCC2)ccc1NC(=O)c1ccccc1-c1ccc(C(F)(F)F)cc1 [Example 2-102],14.6
7,CN(C)C(=O)c1cc(CC(=O)OCC(CO)(CO)c2ccccc2)ccc1NC(=O)c1ccccc1-c1ccc(C(F)(F)F)cc1 [Example 2-103],42.6
8,CC(=O)OCC(COC(C)=O)(COC(=O)Cc1ccc(NC(=O)c2ccccc2-c2ccc(C(F)(F)F)cc2)c(C(=O)N(C)C)c1)c1ccccc1 [Example 2-104],3.58
9,CCOC(=O)C(COC(=O)Cc1cc(C(=O)N(C)C)c(NC(=O)c2ccccc2-c2ccc(C(F)(F)F)cc2)cn1)(C(=O)OCC)c1ccccc1 [Example 2-107],50

# Now those with a lower IC50, led by results:
row,IC50 [nM],Structure (SMILES)
1,0.49,CCOC(=O)C(COC(=O)Cc1ccc(NC(=O)c2cccc(OC)c2-c2ccc(C(F)(F)F)cc2)c(C(=O)N(C)C)c1)(C(=O)OCC)c1ccccc1 [Example 2-85]
2,0.42,CCOC(=O)C(COC(=O)Cc1ccc(NC(=O)c2c(C)cccc2-c2ccc(C(F)(F)F)cc2)c(C(=O)N(C)C)c1)(C(=O)OCC)c1ccccc1 [Example 2-86]
3,1.92,CCOC(=O)C(COC(=O)Cc1ccc(NC(=O)c2ccccc2-c2ccc(C)cc2)c(C(=O)N(C)C)c1)(C(=O)OCC)c1ccccc1 [Example 2-88]
4,1.74,CCOC(=O)C(COC(=O)Cc1ccc(NC(=O)c2ccccc2-c2ccc(CC)cc2)c(C(=O)N(C)C)c1)(C(=O)OCC)c1ccccc1 [Example 2-90]
5,0.54,C=C(C)c1ccc(-c2ccccc2C(=O)Nc2ccc(CC(=O)OCC(C(=O)OCC)(C(=O)OCC)c3ccccc3)cc2C(=O)N(C)C)cc1 [Example 2-91]
6,1.47,CCOC(=O)C(COC(=O)Cc1ccc(NC(=O)c2ccccc2-c2ccc(C(C)C)cc2)c(C(=O)N(C)C)c1)(C(=O)OCC)c1ccccc1 [Example 2-92]
7,0.97,CCC(CC)(COC(=O)Cc1ccc(NC(=O)c2ccccc2-c2ccc(C(F)(F)F)cc2)c(C(=O)N(C)C)c1)c1ccccc1 [Example 2-98]
8,0.2,CCOC(=O)C(COC(=O)Cc1ccc(NC(=O)c2ccccc2-c2ccc(C(F)(F)F)cc2)c(C(=O)N(C)C)c1)(C(=O)OCC)c1cccs1 [Example 2-105]
9,0.44,CCOC(=O)C(COC(=O)Cc1ccc(NC(=O)c2ccccc2-c2ccc(C(F)(F)F)cc2)c(C(=O)N(C)C)c1)(C(=O)OCC)c1ccsc1 [Example 2-106]
10,0.82,CCOC(=O)C(COC(=O)Cc1ccc(NC(=O)c2ccccc2-c2ccc(C(F)(F)F)cc2)c(C(=O)N(C)C)c1)(C(=O)OCC)c1sccc1C [Example 2-108]
11,0.93,CCOC(=O)C(COC(=O)Cc1ccc(NC(=O)c2ccccc2-c2ccc(C(F)(F)F)cc2)c(C(=O)N(C)C)c1)(C(=O)OCC)c1ccc(C)s1 [Example 2-109]
12,0.65,CCOC(=O)C(COC(=O)Cc1ccc(NC(=O)c2ccccc2-c2ccc(C(F)(F)F)cc2)c(C(=O)N(C)C)c1)(C(=O)OCC)c1nccs1 [Example 2-110]
13,3.1,CCCC(COC(=O)Cc1ccc(NC(=O)c2ccccc2-c2ccc(C(F)(F)F)cc2)c(C(=O)N(C)C)c1)(C(=O)OCC)C(=O)OCC [Example 2-114]
